# In the supplement of paper PMC10307832:
# Legend:
# Assay in all cases: relative viability (nuclei count vs DMSO), 5 days (fraction); higher = more cells survive
# [1] = tested on: A-427
# Procedure, shortened: (§1)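 A single step with final 0.05% Triton X-100, 1% formaldehyde and 1 ug/ml Hoechst fixed the cells and stained nuclei 5 days after treatment. Lung cancer cell lines in 1536-well plates had been treated by pin tool the day after seeding with one drug alone or a fixed anchor-drug dose plus five library-drug doses (not always all listed) in √10 steps, and nuclei were counted on 4× images. Relative viability is the ratio of nuclei in treated wells to nuclei in vehicle wells, taken as the median of duplicate plates.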
# [2] = tested on: NCI-H2170
# Procedure, shortened: as §1
# [3] = tested on: HARA
# Procedure, shortened: as §1
# [4] = tested on: NCI-H322M
# Procedure, shortened: as §1
# [5] = tested on: LK-2
# Procedure, shortened: as §1
# [6] = tested on: SK-MES-1
# Procedure, shortened: as §1
# [7] = tested on: ABC-1
# Procedure, shortened: as §1
# [8] = tested on: PC-3 [JPC-3]
# Procedure, shortened: as §1
# [9] = tested on: LXF-289
# Procedure, shortened: as §1
# [10] = tested on: NCI-H727
# Procedure, shortened: as §1
# [11] = tested on: SW 1573
# Procedure, shortened: as §1
# [12] = tested on: EMC-BAC-2
# Procedure, shortened: as §1
# [13] = tested on: HOP-62
# Procedure, shortened: as §1
# [14] = tested on: NCI-H1944
# Procedure, shortened: as §1
# [15] = tested on: NCI-H1792
# Procedure, shortened: as §1
# [16] = tested on: NCI-H596
# Procedure, shortened: as §1
# [17] = tested on: NCI-H522
# Procedure, shortened: as §1
# [18] = tested on: NCI-H2228
# Procedure, shortened: as §1
# [19] = tested on: NCI-H1993
# Procedure, shortened: as §1
# [20] = tested on: SW 900
# Procedure, shortened: as §1
# [21] = tested on: NCI-H3122
# Procedure, shortened: as §1
# [22] = tested on: NCI-H2009
# Procedure, shortened: as §1
smiles,measurement,setting,value
CC(=O)O[C@@]12CO[C@@H]1C[C@H](O)[C@@]1(C)C(=O)[C@H](O)C3=C(C)[C@@H](OC(=O)[C@H](O)[C@@H](NC(=O)OC(C)(C)C)c4ccccc4)C[C@@](O)([C@@H](OC(=O)c4ccccc4)[C@H]21)C3(C)C [Docetaxel] + N=C(N)NC(=N)NCCc1ccccc1 [Phenformin] (partner 250 µM),relative viability,[1]; first compound 0.0002 µM,0.324
same,relative viability,[1]; first compound 0.000632 µM,0.328
same,relative viability,[1]; first compound 0.002 µM,0.165
same,relative viability,[1]; first compound 0.006325 µM,0.149
same,relative viability,[1]; first compound 0.02 µM,0.12
same,relative viability,[2]; first compound 0.0002 µM,0.405
same,relative viability,[2]; first compound 0.000632 µM,0.428
same,relative viability,[2]; first compound 0.002 µM,0.267
same,relative viability,[2]; first compound 0.006325 µM,0.217
same,relative viability,[2]; first compound 0.02 µM,0.174
same,relative viability,[3]; first compound 0.0002 µM,0.387
same,relative viability,[3]; first compound 0.000632 µM,0.19
same,relative viability,[3]; first compound 0.002 µM,0.0801
same,relative viability,[3]; first compound 0.006325 µM,0.0508
same,relative viability,[3]; first compound 0.02 µM,0.0419
same,relative viability,[4]; first compound 0.0002 µM,0.807
same,relative viability,[4]; first compound 0.000632 µM,0.765
same,relative viability,[4]; first compound 0.002 µM,0.656
same,relative viability,[4]; first compound 0.006325 µM,0.478
same,relative viability,[4]; first compound 0.02 µM,0.332
same,relative viability,[5]; first compound 0.0002 µM,0.369
same,relative viability,[5]; first compound 0.000632 µM,0.27
same,relative viability,[5]; first compound 0.002 µM,0.118
same,relative viability,[5]; first compound 0.006325 µM,0.153
same,relative viability,[5]; first compound 0.02 µM,0.124
same,relative viability,[6]; first compound 0.0002 µM,0.664
same,relative viability,[6]; first compound 0.000632 µM,0.667
same,relative viability,[6]; first compound 0.002 µM,0.364
same,relative viability,[6]; first compound 0.006325 µM,0.273
same,relative viability,[6]; first compound 0.02 µM,0.179
same,relative viability,[7]; first compound 0.0002 µM,0.27
same,relative viability,[7]; first compound 0.000632 µM,0.226
same,relative viability,[7]; first compound 0.002 µM,0.232
same,relative viability,[7]; first compound 0.006325 µM,0.223
same,relative viability,[7]; first compound 0.02 µM,0.212
same,relative viability,[8]; first compound 0.0002 µM,0.484
same,relative viability,[8]; first compound 0.000632 µM,0.48
same,relative viability,[8]; first compound 0.002 µM,0.371
same,relative viability,[8]; first compound 0.006325 µM,0.246
same,relative viability,[8]; first compound 0.02 µM,0.138
same,relative viability,[9]; first compound 0.0002 µM,0.521
same,relative viability,[9]; first compound 0.000632 µM,0.42
same,relative viability,[9]; first compound 0.002 µM,0.127
same,relative viability,[9]; first compound 0.006325 µM,0.0915
same,relative viability,[9]; first compound 0.02 µM,0.0828
same,relative viability,[10]; first compound 0.0002 µM,0.49
same,relative viability,[10]; first compound 0.000632 µM,0.601
same,relative viability,[10]; first compound 0.002 µM,0.457
same,relative viability,[10]; first compound 0.006325 µM,0.472
same,relative viability,[10]; first compound 0.02 µM,0.354
same,relative viability,[11]; first compound 0.0002 µM,0.311
same,relative viability,[11]; first compound 0.000632 µM,0.344
same,relative viability,[11]; first compound 0.002 µM,0.159
same,relative viability,[11]; first compound 0.02 µM,0.119
same,relative viability,[12]; first compound 0.0002 µM,0.509
same,relative viability,[12]; first compound 0.000632 µM,0.412
same,relative viability,[12]; first compound 0.002 µM,0.306
same,relative viability,[12]; first compound 0.006325 µM,0.278
same,relative viability,[12]; first compound 0.02 µM,0.177
same,relative viability,[13]; first compound 0.0002 µM,0.671
same,relative viability,[13]; first compound 0.000632 µM,0.501
same,relative viability,[13]; first compound 0.002 µM,0.322
same,relative viability,[14]; first compound 0.0002 µM,0.182
same,relative viability,[14]; first compound 0.000632 µM,0.188
same,relative viability,[14]; first compound 0.002 µM,0.163
same,relative viability,[14]; first compound 0.006325 µM,0.133
same,relative viability,[14]; first compound 0.02 µM,0.0967
same,relative viability,[15]; first compound 0.0002 µM,0.221
same,relative viability,[15]; first compound 0.000632 µM,0.23
same,relative viability,[15]; first compound 0.002 µM,0.0848
same,relative viability,[15]; first compound 0.006325 µM,0.126
same,relative viability,[15]; first compound 0.02 µM,0.0575
same,relative viability,[16]; first compound 0.0002 µM,0.827
same,relative viability,[16]; first compound 0.000632 µM,0.773
same,relative viability,[16]; first compound 0.002 µM,0.635
same,relative viability,[16]; first compound 0.006325 µM,0.438
same,relative viability,[16]; first compound 0.02 µM,0.235
same,relative viability,[17]; first compound 0.0002 µM,0.611
same,relative viability,[17]; first compound 0.000632 µM,0.433
same,relative viability,[17]; first compound 0.002 µM,0.527
same,relative viability,[17]; first compound 0.006325 µM,0.55
same,relative viability,[17]; first compound 0.02 µM,0.471
same,relative viability,[18]; first compound 0.0002 µM,0.302
same,relative viability,[18]; first compound 0.000632 µM,0.173
same,relative viability,[18]; first compound 0.002 µM,0.147
same,relative viability,[18]; first compound 0.006325 µM,0.158
same,relative viability,[18]; first compound 0.02 µM,0.123
same,relative viability,[19]; first compound 0.0002 µM,0.559
same,relative viability,[19]; first compound 0.000632 µM,0.604
same,relative viability,[19]; first compound 0.002 µM,0.556
same,relative viability,[19]; first compound 0.006325 µM,0.489
same,relative viability,[19]; first compound 0.02 µM,0.439
same,relative viability,[20]; first compound 0.0002 µM,0.389
same,relative viability,[20]; first compound 0.000632 µM,0.235
same,relative viability,[20]; first compound 0.002 µM,0.262
same,relative viability,[20]; first compound 0.006325 µM,0.167
same,relative viability,[20]; first compound 0.02 µM,0.0976
same,relative viability,[21]; first compound 0.0002 µM,0.368
same,relative viability,[21]; first compound 0.000632 µM,0.345
same,relative viability,[21]; first compound 0.002 µM,0.261
same,relative viability,[21]; first compound 0.006325 µM,0.152
same,relative viability,[21]; first compound 0.02 µM,0.139
same,relative viability,[22]; first compound 0.0002 µM,0.483
same,relative viability,[22]; first compound 0.000632 µM,0.526
same,relative viability,[22]; first compound 0.002 µM,0.463
same,relative viability,[22]; first compound 0.006325 µM,0.321
same,relative viability,[22]; first compound 0.02 µM,0.202
